{"source": "PubChem BioAssay (NCI)", "assay_in_all_cases": "NCI-60 cell line screen, 384-well format", "key": {"NCI-H522 lung": {"tested_on": "NCI-H522 lung"}, "HCC-2998 colon": {"tested_on": "HCC-2998 colon"}, "PC-3 prostate": {"tested_on": "PC-3 prostate"}, "SNB-19 CNS": {"tested_on": "SNB-19 CNS"}, "HS 578T breast": {"tested_on": "HS 578T breast"}, "HOP-92 NSCLC": {"tested_on": "HOP-92 NSCLC"}, "NCI-H226 lung": {"tested_on": "NCI-H226 lung"}, "HCT-15 colon": {"tested_on": "HCT-15 colon"}, "M14 melanoma": {"tested_on": "M14 melanoma"}, "NCI/ADR-RES ovarian": {"tested_on": "NCI/ADR-RES ovarian"}, "SF-295 CNS": {"tested_on": "SF-295 CNS"}, "HT29 colon": {"tested_on": "HT29 colon"}, "SK-OV-3 ovarian": {"tested_on": "SK-OV-3 ovarian"}, "HCT-116 colon": {"tested_on": "HCT-116 colon"}, "LOX IMVI melanoma": {"tested_on": "LOX IMVI melanoma"}, "MDA-MB-231 breast": {"tested_on": "MDA-MB-231 breast"}, "SF-268 CNS": {"tested_on": "SF-268 CNS"}, "U251 glioblastoma": {"tested_on": "U251 glioblastoma"}, "NCI-H460 NSCLC": {"tested_on": "NCI-H460 NSCLC"}, "MOLT-4 leukemia": {"tested_on": "MOLT-4 leukemia"}, "UACC-62 melanoma": {"tested_on": "UACC-62 melanoma"}, "MALME-3M melanoma": {"tested_on": "MALME-3M melanoma"}, "CAKI-1 renal": {"tested_on": "CAKI-1 renal"}, "ACHN renal": {"tested_on": "ACHN renal"}, "MCF7 breast": {"tested_on": "MCF7 breast"}, "SK-MEL-28 melanoma": {"tested_on": "SK-MEL-28 melanoma"}, "SN12C renal": {"tested_on": "SN12C renal"}, "OVCAR-4 ovarian": {"tested_on": "OVCAR-4 ovarian"}, "UO-31 renal": {"tested_on": "UO-31 renal"}, "EKVX NSCLC": {"tested_on": "EKVX NSCLC"}}, "note": "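Abbreviation: GI50, concentration required for 50% inhibition of growth. TGI denotes the concentration required for complete inhibition of growth.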"}
{"smiles": "NCCCCN(Cc1nc2ccccc2[nH]1)[C@H]1CCCc2cccnc21", "values": [{"measurement": "GI50", "setting": "NCI-H522 lung", "result": 2.68, "unit": "µM"}, {"measurement": "TGI", "setting": "NCI-H522 lung", "result": 18.6, "unit": "µM"}, {"measurement": "GI50", "setting": "HCC-2998 colon", "result": 4.63, "unit": "µM"}, {"measurement": "TGI", "setting": "HCC-2998 colon", "result": 18.4, "unit": "µM"}, {"measurement": "GI50", "setting": "PC-3 prostate", "result": 6.25, "unit": "µM"}, {"measurement": "TGI", "setting": "PC-3 prostate", "result": 40.8, "unit": "µM"}, {"measurement": "GI50", "setting": "SNB-19 CNS", "result": 18, "unit": "µM"}, {"measurement": "TGI", "setting": "SNB-19 CNS", "result": "> 100", "unit": "µM"}, {"measurement": "GI50", "setting": "HS 578T breast", "result": 4.57, "unit": "µM"}, {"measurement": "TGI", "setting": "HS 578T breast", "result": 18.4, "unit": "µM"}, {"measurement": "GI50", "setting": "HOP-92 NSCLC", "result": 2.7, "unit": "µM"}, {"measurement": "TGI", "setting": "HOP-92 NSCLC", "result": 13.4, "unit": "µM"}, {"measurement": "GI50", "setting": "NCI-H226 lung", "result": 10.4, "unit": "µM"}, {"measurement": "TGI", "setting": "NCI-H226 lung", "result": 23.5, "unit": "µM"}, {"measurement": "GI50", "setting": "HCT-15 colon", "result": 13.9, "unit": "µM"}, {"measurement": "TGI", "setting": "HCT-15 colon", "result": 32.2, "unit": "µM"}, {"measurement": "GI50", "setting": "M14 melanoma", "result": 5.75, "unit": "µM"}, {"measurement": "TGI", "setting": "M14 melanoma", "result": 18.4, "unit": "µM"}, {"measurement": "GI50", "setting": "NCI/ADR-RES ovarian", "result": 16, "unit": "µM"}, {"measurement": "TGI", "setting": "NCI/ADR-RES ovarian", "result": 31.6, "unit": "µM"}, {"measurement": "GI50", "setting": "SF-295 CNS", "result": 8.81, "unit": "µM"}, {"measurement": "TGI", "setting": "SF-295 CNS", "result": 22.1, "unit": "µM"}, {"measurement": "GI50", "setting": "HT29 colon", "result": 3.6, "unit": "µM"}, {"measurement": "TGI", "setting": "HT29 colon", "result": 13.4, "unit": "µM"}, {"measurement": "GI50", "setting": "SK-OV-3 ovarian", "result": 9.63, "unit": "µM"}, {"measurement": "TGI", "setting": "SK-OV-3 ovarian", "result": 40.4, "unit": "µM"}, {"measurement": "GI50", "setting": "HCT-116 colon", "result": 5.3, "unit": "µM"}, {"measurement": "TGI", "setting": "HCT-116 colon", "result": 20.5, "unit": "µM"}, {"measurement": "GI50", "setting": "LOX IMVI melanoma", "result": 9.28, "unit": "µM"}, {"measurement": "TGI", "setting": "LOX IMVI melanoma", "result": 23, "unit": "µM"}, {"measurement": "GI50", "setting": "MDA-MB-231 breast", "result": 4.42, "unit": "µM"}, {"measurement": "TGI", "setting": "MDA-MB-231 breast", "result": 23.6, "unit": "µM"}, {"measurement": "GI50", "setting": "SF-268 CNS", "result": 5.51, "unit": "µM"}, {"measurement": "TGI", "setting": "SF-268 CNS", "result": 35.1, "unit": "µM"}, {"measurement": "GI50", "setting": "U251 glioblastoma", "result": 6.5, "unit": "µM"}, {"measurement": "TGI", "setting": "U251 glioblastoma", "result": 25.9, "unit": "µM"}, {"measurement": "GI50", "setting": "NCI-H460 NSCLC", "result": 4.47, "unit": "µM"}, {"measurement": "TGI", "setting": "NCI-H460 NSCLC", "result": 18.1, "unit": "µM"}, {"measurement": "GI50", "setting": "MOLT-4 leukemia", "result": 1.31, "unit": "µM"}, {"measurement": "TGI", "setting": "MOLT-4 leukemia", "result": 2.84, "unit": "µM"}, {"measurement": "GI50", "setting": "UACC-62 melanoma", "result": 10.1, "unit": "µM"}, {"measurement": "TGI", "setting": "UACC-62 melanoma", "result": 22.3, "unit": "µM"}, {"measurement": "GI50", "setting": "MALME-3M melanoma", "result": 11.9, "unit": "µM"}, {"measurement": "TGI", "setting": "MALME-3M melanoma", "result": 24.3, "unit": "µM"}, {"measurement": "GI50", "setting": "CAKI-1 renal", "result": 7.89, "unit": "µM"}, {"measurement": "TGI", "setting": "CAKI-1 renal", "result": 22.5, "unit": "µM"}, {"measurement": "GI50", "setting": "ACHN renal", "result": 17.3, "unit": "µM"}, {"measurement": "TGI", "setting": "ACHN renal", "result": 35.9, "unit": "µM"}, {"measurement": "GI50", "setting": "MCF7 breast", "result": 7.6, "unit": "µM"}, {"measurement": "TGI", "setting": "MCF7 breast", "result": 25.9, "unit": "µM"}, {"measurement": "GI50", "setting": "SK-MEL-28 melanoma", "result": 11.4, "unit": "µM"}, {"measurement": "TGI", "setting": "SK-MEL-28 melanoma", "result": 24.3, "unit": "µM"}, {"measurement": "GI50", "setting": "SN12C renal", "result": 9.33, "unit": "µM"}, {"measurement": "TGI", "setting": "SN12C renal", "result": 52.2, "unit": "µM"}, {"measurement": "GI50", "setting": "OVCAR-4 ovarian", "result": 4.66, "unit": "µM"}, {"measurement": "TGI", "setting": "OVCAR-4 ovarian", "result": 26.2, "unit": "µM"}, {"measurement": "GI50", "setting": "UO-31 renal", "result": 13.4, "unit": "µM"}, {"measurement": "TGI", "setting": "UO-31 renal", "result": 29.1, "unit": "µM"}, {"measurement": "GI50", "setting": "EKVX NSCLC", "result": 8.83, "unit": "µM"}]}
